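All cell lines were grown in 96-well plates and treated with compound for 48 hours. GI50 = concentration required for 50% inhibition of growth.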 Active and inactive are the calls of the source. Rule as the data show it: active = GI50 up to about 1.1 µM and inactive = higher.
Key:
Test in all cases: DTP human tumour cell line panel, 48 h
NCI-H460 = system: NCI-H460
ACHN = system: ACHN
OVCAR-3 = system: OVCAR-3
T47D = system: T47D
CCRF-CEM = system: CCRF-CEM
MCF7 = system: MCF7
OVCAR-8 = system: OVCAR-8
SR = system: SR
CAKI-1 = system: CAKI-1
K562 = system: K562
UACC-62 = system: UACC-62
NCI-H226 = system: NCI-H226
HL-60 = system: HL-60
TK-10 = system: TK-10
KM12 = system: KM12
SNB-75 = system: SNB-75
OVCAR-4 = system: OVCAR-4
HCT-116 = system: HCT-116
Hs-578T = system: Hs-578T
IGROV-1 = system: IGROV-1
PC-3 = system: PC-3
U-251 = system: U-251
A549 = system: A549
MOLT-4 = system: MOLT-4
HCT-15 = system: HCT-15
OVCAR-5 = system: OVCAR-5
RXF 393 = system: RXF 393
SK-MEL-5 = system: SK-MEL-5
SNB-19 = system: SNB-19
MDA-N = system: MDA-N
HOP-92 = system: HOP-92
UO-31 = system: UO-31
SN12C = system: SN12C
SK-MEL-28 = system: SK-MEL-28
Malme-3M = system: Malme-3M
A498 = system: A498
HCC 2998 = system: HCC 2998
MDA-MB-435 = system: MDA-MB-435
M14 = system: M14
NCI/ADR-RES = system: NCI/ADR-RES
COLO 205 = system: COLO 205
SF-295 = system: SF-295
NCI-H522 = system: NCI-H522
UACC-257 = system: UACC-257
SK-OV-3 = system: SK-OV-3
LOX IMVI = system: LOX IMVI
MDA-MB-231 = system: MDA-MB-231
SF-268 = system: SF-268
SF-539 = system: SF-539
BT-549 = system: BT-549
SK-MEL-2 = system: SK-MEL-2
DU-145 = system: DU-145
NCI-H23 = system: NCI-H23
EKVX = system: EKVX
RPMI-8226 = system: RPMI-8226
SW-620 = system: SW-620
HT-29 = system: HT-29
HOP-62 = system: HOP-62
786-0 = system: 786-0

Measured: GI50

O=c1c2nc(-c3ccccc3)oc2n(-c2ccccc2)c(=O)n1-c1ccccc1
inactive: NCI-H460 31.8 µM | ACHN 25.9 µM | OVCAR-3 25.8 µM | T47D 37.9 µM | CCRF-CEM > 46.5 µM | MCF7 45.7 µM | OVCAR-8 23.3 µM | SR > 31.6 µM | CAKI-1 8.18 µM | K562 > 46.5 µM | UACC-62 31.1 µM | NCI-H226 31.8 µM | HL-60 > 100 µM | TK-10 15 µM | KM12 33.2 µM | SNB-75 18.1 µM | OVCAR-4 18.8 µM | HCT-116 31.7 µM | Hs-578T 21.9 µM | IGROV-1 26.5 µM | PC-3 44.4 µM | U-251 19.3 µM | A549 37.6 µM | MOLT-4 > 46.5 µM | OVCAR-5 > 46.5 µM | RXF 393 18.1 µM | SK-MEL-5 23.7 µM | SNB-19 20.7 µM | MDA-N > 46.5 µM | HOP-92 14.4 µM | UO-31 22 µM | SN12C 36.2 µM | SK-MEL-28 > 100 µM | Malme-3M > 31.6 µM | A498 25.8 µM | HCC 2998 > 46.5 µM | MDA-MB-435 > 46.5 µM | M14 > 46.5 µM | NCI/ADR-RES 19.1 µM | COLO 205 > 46.5 µM | SF-295 19.1 µM | NCI-H522 21.4 µM | UACC-257 36.3 µM | SK-OV-3 21.5 µM | LOX IMVI 38.5 µM | MDA-MB-231 29.3 µM | SF-268 20.7 µM | SF-539 20.2 µM | BT-549 28.4 µM | SK-MEL-2 > 46.5 µM | DU-145 82.2 µM | NCI-H23 43.2 µM | EKVX 28.4 µM | RPMI-8226 > 46.5 µM | SW-620 > 46.5 µM | HT-29 > 46.5 µM | HOP-62 17.5 µM | 786-0 17.5 µM
> 46.5 µM: HCT-15

CC1OC(c2ccc3c(c2O)C(=O)C2=C(C3=O)C3(O)C(=O)CC(C)(O)CC3(O)C=C2)CC(O)C1O (stereo unspecified)
inactive: NCI-H460 24.2 µM | ACHN 13.6 µM | OVCAR-3 5.35 µM | T47D 11.5 µM | CCRF-CEM 2.05 µM | MCF7 2.79 µM | OVCAR-8 14.1 µM | SR 10.2 µM | CAKI-1 7.28 µM | K562 2.7 µM | UACC-62 14.9 µM | NCI-H226 19.8 µM | HL-60 1.98 µM | TK-10 15.1 µM | KM12 21.3 µM | SNB-75 18.2 µM | OVCAR-4 13.7 µM | HCT-116 5.26 µM | Hs-578T 20.1 µM | IGROV-1 13.4 µM | PC-3 23.3 µM | U-251 16.7 µM | A549 26.3 µM | MOLT-4 3.81 µM | OVCAR-5 17 µM | RXF 393 11.4 µM | SK-MEL-5 11 µM | SNB-19 18.4 µM | MDA-N 3.23 µM | HOP-92 14.7 µM | UO-31 17.1 µM | SN12C 15 µM | SK-MEL-28 15.7 µM | Malme-3M 2.99 µM | A498 18.2 µM | HCC 2998 15.5 µM | MDA-MB-435 10.6 µM | M14 16.1 µM | NCI/ADR-RES 19.5 µM | COLO 205 1.75 µM | SF-295 16.6 µM | NCI-H522 2.34 µM | UACC-257 15 µM | SK-OV-3 41.3 µM | LOX IMVI 14 µM | MDA-MB-231 2.25 µM | SF-268 21.2 µM | SF-539 17.7 µM | BT-549 18.7 µM | SK-MEL-2 20.5 µM | DU-145 15.6 µM | NCI-H23 20.6 µM | EKVX 16 µM | RPMI-8226 9.73 µM | SW-620 7.98 µM | HT-29 5.4 µM | HOP-62 26.8 µM | 786-0 16.8 µM
14.5 µM: HCT-15

O=C(OCCNC(=O)N1CC1)OCCNC(=O)N1CC1
> 10 µM: HCT-15
inactive: NCI-H460 > 10 µM | ACHN > 10 µM | OVCAR-3 > 10 µM | T47D > 10 µM | CCRF-CEM > 10 µM | MCF7 > 10 µM | OVCAR-8 > 10 µM | SR > 10 µM | CAKI-1 > 10 µM | K562 > 10 µM | UACC-62 > 10 µM | NCI-H226 > 10 µM | HL-60 > 10 µM | TK-10 > 10 µM | KM12 > 10 µM | SNB-75 > 10 µM | OVCAR-4 > 10 µM | HCT-116 > 10 µM | Hs-578T > 10 µM | IGROV-1 > 10 µM | PC-3 > 10 µM | U-251 > 10 µM | A549 > 10 µM | MOLT-4 > 10 µM | OVCAR-5 > 10 µM | RXF 393 > 10 µM | SK-MEL-5 > 10 µM | SNB-19 > 10 µM | MDA-N > 10 µM | HOP-92 > 10 µM | UO-31 > 10 µM | SN12C > 10 µM | SK-MEL-28 > 10 µM | Malme-3M > 10 µM | A498 > 10 µM | HCC 2998 > 10 µM | MDA-MB-435 > 10 µM | M14 > 10 µM | NCI/ADR-RES > 10 µM | COLO 205 > 10 µM | SF-295 > 10 µM | NCI-H522 > 10 µM | UACC-257 > 10 µM | SK-OV-3 > 10 µM | LOX IMVI > 10 µM | MDA-MB-231 > 10 µM | SF-268 > 10 µM | SF-539 > 10 µM | BT-549 > 10 µM | SK-MEL-2 > 10 µM | DU-145 > 10 µM | NCI-H23 > 10 µM | EKVX > 10 µM | RPMI-8226 > 10 µM | SW-620 > 10 µM | HT-29 > 10 µM | HOP-62 > 10 µM | 786-0 > 10 µM

COC(=O)C1C(=O)C(C(=O)OC)C2CCC1N2C (stereo unspecified)
inactive: NCI-H460 48.3 µM | ACHN 41 µM | OVCAR-3 18.3 µM | T47D 30.7 µM | CCRF-CEM 15.8 µM | MCF7 33.6 µM | OVCAR-8 27.9 µM | SR 32.1 µM | CAKI-1 92.5 µM | K562 31.8 µM | UACC-62 40.3 µM | NCI-H226 36.2 µM | HL-60 19.9 µM | TK-10 62.4 µM | KM12 > 100 µM | SNB-75 35.2 µM | OVCAR-4 39.8 µM | HCT-116 21.5 µM | Hs-578T 52.2 µM | IGROV-1 22.9 µM | PC-3 29.4 µM | U-251 56.1 µM | A549 > 100 µM | MOLT-4 9.08 µM | OVCAR-5 > 100 µM | RXF 393 24.9 µM | SK-MEL-5 > 100 µM | SNB-19 > 100 µM | MDA-N 23.8 µM | HOP-92 16 µM | UO-31 59.8 µM | SN12C 32.1 µM | SK-MEL-28 34.4 µM | Malme-3M 20.2 µM | A498 76.9 µM | HCC 2998 > 100 µM | MDA-MB-435 24.8 µM | M14 29.8 µM | NCI/ADR-RES 48.6 µM | COLO 205 > 100 µM | SF-295 > 100 µM | NCI-H522 > 100 µM | UACC-257 83.4 µM | SK-OV-3 28.4 µM | LOX IMVI 35.4 µM | MDA-MB-231 39 µM | SF-268 96.6 µM | SF-539 33.5 µM | SK-MEL-2 20 µM | DU-145 28.8 µM | EKVX > 100 µM | RPMI-8226 35 µM | SW-620 36.5 µM | HT-29 35 µM | HOP-62 36.2 µM | 786-0 33.7 µM
1.84 µM: HCT-15
active: BT-549 0.628 µM | NCI-H23 0.571 µM
